Laboratory results from ChEMBL document CHEMBL3046246, “Synthesis of spirothiohydantoin analogues of hydantocidin” (1995).

Legend:
Assay type in all cases: functional
Conditions in all cases: 240 h, read-out: GI
Setaria viridis = experiment: Herbicidal activity against three-leaf stage Setaria viridis (green foxtail) assessed as plant growth inhibition at 1000 ppm applied through foliar spraying measured after 10 days post compound treatment relative to untreated control
Sorghum halepense = experiment: Herbicidal activity against three-leaf stage Sorghum halepense (Johnson grass) assessed as plant growth inhibition at 1000 ppm applied through foliar spraying measured after 10 days post compound treatment relative to untreated control
Ambrosia artemisiifolia = experiment: Herbicidal activity against three-leaf stage Ambrosia artemisiifolia (ragweed) assessed as plant growth inhibition at 1000 ppm applied through foliar spraying measured after 10 days post compound treatment relative to untreated control
Abutilon theophrasti = experiment: Herbicidal activity against three-leaf stage Abutilon theophrasti (velvetleaf) assessed as plant growth inhibition at 1000 ppm applied through foliar spraying measured after 10 days post compound treatment relative to untreated control
Ipomoea purpurea = experiment: Herbicidal activity against 3-leaf stage tall Ipomoea purpurea (common morning-glory) assessed as plant growth inhibition at 1000 ppm applied through foliar spraying measured after 10 days post compound treatment relative to untreated control
Digitaria sanguinalis = experiment: Herbicidal activity against three-leaf stage Digitaria sanguinalis (hairy crabgrass) assessed as plant growth inhibition at 1000 ppm applied through foliar spraying measured after 10 days post compound treatment relative to untreated control
Xanthium strumarium = experiment: Herbicidal activity against three-leaf stage Xanthium strumarium (cocklebur) assessed as plant growth inhibition at 1000 ppm applied through foliar spraying measured after 10 days post compound treatment relative to untreated control
Solanum nigrum = experiment: Herbicidal activity against three-leaf stage Solanum nigrum (black nightshade) assessed as plant growth inhibition at 1000 ppm applied through foliar spraying measured after 10 days post compound treatment relative to untreated control
Echinochloa crus-galli = experiment: Herbicidal activity against three-leaf stage Echinochloa crus-galli (barnyard grass) assessed as plant growth inhibition at 1000 ppm applied through foliar spraying measured after 10 days post compound treatment relative to untreated control
Panicum dichotomiflorum = experiment: Herbicidal activity against three-leaf stage Panicum dichotomiflorum assessed as plant growth inhibition at 1000 ppm applied through foliar spraying measured after 10 days post compound treatment relative to untreated control

SMILES	inhibition of growth at 1000 ppm (Setaria viridis)	inhibition of growth at 1000 ppm (Sorghum halepense)	inhibition of growth at 1000 ppm (Ambrosia artemisiifolia)	inhibition of growth at 1000 ppm (Abutilon theophrasti)	inhibition of growth at 1000 ppm (Ipomoea purpurea)	inhibition of growth at 1000 ppm (Digitaria sanguinalis)	inhibition of growth at 1000 ppm (Xanthium strumarium)	inhibition of growth at 1000 ppm (Solanum nigrum)	inhibition of growth at 1000 ppm (Echinochloa crus-galli)	inhibition of growth at 1000 ppm (Panicum dichotomiflorum)
O=C1NC(=S)N[C@@]12O[C@H](CO)[C@@H](O)[C@H]2O	95%	95%	95%	95%	95%	95%	95%	95%	95%	80%
O=C1NC(=O)[C@@]2(N1)O[C@H](CO)[C@@H](O)[C@H]2O [HYDANTOCIDIN]	95%	95%	95%	95%	95%	95%	95%	95%	95%	95%
O=C1NC(=S)N[C@]12O[C@H](CO)[C@@H](O)[C@H]2O	95%	95%	80%	80%	80%	95%	95%	80%	95%	80%
O=C1NC(=O)[C@]2(N1)O[C@H](CO)[C@@H](O)[C@H]2O [HYDANTOCIDIN]	80%	0%	–	80%	30%	80%	80%	50%	10%	80%
